What all share (assay type): cell-based
One assay has as its target T1, OAT1 (SLC22A6) (Homo sapiens, UniProt Q4U2R8).
T1 construct: host or cells: HEK-293
T1 sequence (Q4U2R8 1-563): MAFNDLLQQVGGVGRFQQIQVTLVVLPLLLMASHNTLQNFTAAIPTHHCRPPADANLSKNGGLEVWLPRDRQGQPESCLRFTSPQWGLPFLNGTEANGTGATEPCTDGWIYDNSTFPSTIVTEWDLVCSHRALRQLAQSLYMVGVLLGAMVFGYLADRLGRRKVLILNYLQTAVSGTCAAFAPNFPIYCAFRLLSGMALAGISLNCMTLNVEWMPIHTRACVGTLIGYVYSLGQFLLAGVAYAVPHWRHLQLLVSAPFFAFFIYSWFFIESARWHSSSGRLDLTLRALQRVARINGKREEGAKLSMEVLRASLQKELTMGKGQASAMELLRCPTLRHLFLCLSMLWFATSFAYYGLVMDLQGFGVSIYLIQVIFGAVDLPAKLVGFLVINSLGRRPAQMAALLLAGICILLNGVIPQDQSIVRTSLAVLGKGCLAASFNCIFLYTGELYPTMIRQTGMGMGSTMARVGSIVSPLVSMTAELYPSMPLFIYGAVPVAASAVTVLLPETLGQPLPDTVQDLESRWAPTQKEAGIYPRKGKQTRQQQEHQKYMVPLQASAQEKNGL
Nature of the assay: OAT1 transporter-mediated cellular uptake (substrate test). The note with it: uptake 5 min, 37° C. The protocol: (§1) DMSO (0.5%) was the solvent control (SC) and the known inhibitor diclofenac (100 μM) was the positive control (PC). Data were fit to either the Michalis-Menten equation for uptake or the Hill equation for inhibition using the solvent control to define the top and the positive control inhibitor to define the bottom. Symbols represent the mean±SEM, n=3.
(§2) Human OAT1 (SLC22A6) and OAT3 (SLC22A8) overexpressing HEK-293 cells and control cells without transfected transporter (Corning® TransportoCells™) are plated to 24-well plates and cellular uptake of 10 to 100 μg/mL of a Compound of the Disclosure is measured in the absence and presence of transporter inhibitors. Uptake of a Compound of the Disclosure into control cells is measured only without chemical inhibitors. […] Cells are grown in DMEM (Gibco 4196, high glucose, without sodium pyruvate) supplemented with MEM non-essential amino acids and 10% fetal bovine serum. Cells are re-fed with fresh medium after attachment (4-6 hours post-seeding). Cell are plated at a density of 4×10^5/well in 24-well plates coated with poly-D-lysine. Transporter assays are conducted in 400 μL of HBSS supplemented with 10 mM Hepes, pH 7.4 […]
(§3) Enzyme kinetic data for uptake and metabolism of a Compound of the Disclosure is analysed by fitting the Michaelis-Menten equation to the data. […]

The target of another assay is T2, OAT3 (SLC22A8) (Homo sapiens, UniProt Q8TCC7).
T2 construct: host or cells: HEK-293
T2 sequence (Q8TCC7 1-542): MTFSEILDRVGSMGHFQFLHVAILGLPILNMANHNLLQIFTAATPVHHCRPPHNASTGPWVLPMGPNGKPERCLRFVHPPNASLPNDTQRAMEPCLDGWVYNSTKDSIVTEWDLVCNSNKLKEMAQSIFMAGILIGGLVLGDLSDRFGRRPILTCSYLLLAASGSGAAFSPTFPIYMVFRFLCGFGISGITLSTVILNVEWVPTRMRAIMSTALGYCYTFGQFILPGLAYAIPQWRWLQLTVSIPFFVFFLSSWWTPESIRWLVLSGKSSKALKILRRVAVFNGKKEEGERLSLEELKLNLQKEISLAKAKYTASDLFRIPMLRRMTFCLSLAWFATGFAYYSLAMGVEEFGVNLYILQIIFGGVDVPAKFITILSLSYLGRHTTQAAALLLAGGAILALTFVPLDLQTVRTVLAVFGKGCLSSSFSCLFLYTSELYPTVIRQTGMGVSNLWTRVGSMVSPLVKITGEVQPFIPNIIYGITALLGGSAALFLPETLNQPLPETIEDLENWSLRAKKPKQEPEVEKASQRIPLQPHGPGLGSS
Put plainly: OAT3 transporter-mediated cellular uptake (substrate test). The note with it: uptake 5 min, 37° C. The protocol: as §1, §2, §3

Assay [1] deals with T3, monocarboxylate transporter (MCT1) (Homo sapiens, UniProt P53985).
T3 sequence (P53985 1-500): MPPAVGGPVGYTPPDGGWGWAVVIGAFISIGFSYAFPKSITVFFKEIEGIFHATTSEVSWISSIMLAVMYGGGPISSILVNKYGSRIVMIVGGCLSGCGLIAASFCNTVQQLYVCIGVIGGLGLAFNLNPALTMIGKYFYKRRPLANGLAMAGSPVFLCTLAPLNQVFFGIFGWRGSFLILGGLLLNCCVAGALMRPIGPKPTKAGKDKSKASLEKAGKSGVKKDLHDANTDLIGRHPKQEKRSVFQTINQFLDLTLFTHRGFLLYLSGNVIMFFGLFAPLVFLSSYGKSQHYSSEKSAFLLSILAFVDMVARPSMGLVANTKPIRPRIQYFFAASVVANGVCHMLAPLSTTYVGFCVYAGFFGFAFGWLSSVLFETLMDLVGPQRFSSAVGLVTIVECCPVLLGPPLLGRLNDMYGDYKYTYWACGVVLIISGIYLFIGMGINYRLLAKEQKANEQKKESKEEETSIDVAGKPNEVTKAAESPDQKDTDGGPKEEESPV
Put plainly: Inhibition of MCT1 uptake of known substrate 2-thiophene glyoxylate. Further details: expressed in transfected cells. The protocol: FIG. 4(c) is a line graph showing concentration-inhibition curves for the inhibition of uptake of the known substrate 2-thiophene glyoxylate (500 μM) for MCT1. DMSO (0.5%) was the solvent control (SC) and the known inhibitor phloretin (500 μM) was the positive control (PC).
FIG. 4(d) is a line graph showing concentration-inhibition curves for the inhibition of uptake of the known substrate 2-thiophene glyoxylate (500 μM) for MCT1. DMSO (0.5%) was the solvent control (SC) and the known inhibitor phloretin (500 μM) was the positive control (PC).
The known probe substrates used as positive controls are 3 μM chlorothiazide for OAT1, 2 μM estrone-3-sulfate for OAT3, 10 μM gabapentin for LAT1, 50 μM Gly-Sar for PepT1, 500 μM thiophene-2-glyoxylic acid for MCT1.
The IC50 value for the test item is determined by fitting the Hill equation in the following form:
where A % is the percent activity remaining (the mean cellular uptake observed in the solvent control sample set to 100% and the mean cellular uptake observed in the presence of the positive control inhibitor set to 0%), Top and Bottom are the upper and lower plateau of A %. [I] is the inhibitor concentration and IC50 is the inhibitor concentration where the remaining activity is at the midpoint between the Top and Bottom.

As usually defined, the Ki is a measure of affinity in units of concentration, obtained from inhibition or displacement. By IC50 is commonly meant the point on the concentration scale where inhibition reaches its midpoint. Read a high IC50 as weaker potency in that assay. On to `CC(=O)N[C@@H](CC(C)C)C(=O)O` [N-acetyl-L-leucine], for which the “substrate of OAT1 (uptake)” value at OAT1 (SLC22A6) was “substrate”. Also, on OAT3 (SLC22A8), the “substrate of OAT3 (uptake)” value is given as “substrate”. Moreover, the Ki in assay [1] (assuming competitive inhibition, read-out: affinity (Ki) for MCT1, Cheng-Prusoff equation) was 4.3 mM. The IC50 in assay [1] (probe substrate 2-thiophene glyoxylate 500 μM) stood at 15 mM.
